# Laboratory results from paper PMC6312359, “Diisopropylphenyl-imidazole (DII): A new compound that exerts anthelmintic activity through novel molecular mechanisms” (PLoS Neglected Tropical Diseases, 2018).
# “And” between values parts separate entries of the source, which are not always exact repeats. Identical values can stand only once. “Also recorded” adds a separate entry of the source.
# Experiments:
# [1] = system: C. elegans; experiment: Screening imidazole compounds: worm survival; type: in vivo, Caenorhabditis elegans; settings: 150 μg/ml, 72 h, 20°C, young adult wild-type worms, liquid medium (S-Basal) with E. coli OP50
# Method: 100–150 young adult wild-type worms were exposed to these compounds (150 μg/ml) in liquid medium (S-Basal) containing E. coli OP50. Micromolar concentrations for each compound are: 487 μM for 1, 428 μM for 2, 410 μM for 3, 375 μM for 4, 789 μM for 5, 735 μM for 6, 389 μM for 7, 319 μM for 8, 263 μM for 9, 806 μM for 10 and 657 μM for 11. Compounds were dissolved in water or DMSO according to their solubility. After 72 h, animal survival was analyzed. An animal was considered dead if it made no movement in response to gentle prodding with a worm pick. At least three independent experiments were analyzed.
# We exposed 100–150 young adult worms to these compounds in liquid medium (S-Basal) containing the bacteria E. coli OP50 as a food source. After 72 h at 20°C, we analyzed worm survival (Fig 1B). […] The drug concentration chosen for this screening was 150 μg/ml, which is similar to those used in other screening studies. The corresponding molar concentration for each compound is detailed in Materials and Methods. Depending on their solubility properties, the compounds were dissolved either in water or DMSO (up to 0.75% final concentration).
# [2] = system: Escherichia coli ATCC 25922; experiment: Minimum inhibitory and bactericidal concentrations, microdilution; type: cell-based; settings: 24 h at 37°C
# Method: (§1) The strains used in this study were Escherichia coli ATCC 25922 and Staphylococcus aureus ATCC 25923, kindly provided by Dr. Ziegler (Bacillus Genetic Stock Center, The Ohio State University). Stocks were stored in Mueller Hinton Broth (MHB, Biokar Diagnostics, France) supplemented with glycerol 20% at -70°C. Before running each test, the strains were incubated for 48 h at 37°C in MHB. Finally, the bacterial strains were sub-cultured in MHB at 37°C for 24 h. The solutions of antimicrobial agents and imidazolium salts were prepared following the Clinical and Laboratory Standards Institute (CLSI) guidelines for determination of Minimum Inhibitory Concentrations by the microdilution method (CLSI 2009). […] Cultures were incubated as described above and adjusted to OD625nm ~ 0.08–0.13 by the direct colony suspension method in saline water and finally adjusted to 2–8 10^5 CFU/ml by diluting 1:150 in MHB before testing. A volume of 100 μl of each sample dilution in saline water was transferred to the microplate well. Finally, an equal volume of the inoculum was added. The MIC was the lowest concentration at which there was no visible growth when compared with controls after 24 h at 37°C. To assess the minimum bactericidal concentration (MBC), 20 μl aliquots were taken from the wells where no visible growth was observed, seeded on petri dishes and covered with MH agar (MHA) at 45°C. The compounds were considered bactericidal at the concentration at which no visible colony was observed on the plate after 24 h at 37°C. All conditions were run at least in duplicate. The results were obtained from at least 3 independent experiments.
# [3] = system: Staphylococcus aureus ATCC 25923; experiment: as above; type: cell-based; settings: ATCC25923, 24 h at 37°C
# Method: as §1
# [4] = system: C. elegans; experiment: Lethality assays, dose-dependent, wild-type L4; type: in vivo, Caenorhabditis elegans; settings: for LC50: Caenorhabditis elegans, L4 wild-type
# Method: Dose-dependent lethality was quantified by exposing 40 L4s to DII (0–1000 μM) dissolved in solid medium for 8 and 24 h at 20°C. For survival to 96 h of DII exposure the temperature used was 13°C to avoid food depletion.
# [5] = system: C. elegans mutant strains; experiment: DII nematicidal effect on mutant strains; type: in vivo, Caenorhabditis elegans
# Method: To evaluate DII nematicidal effects on mutant strains two different conditions were tested: i) ~40 L4s were exposed to DII (600 μM) in NGM plates and survival was scored at 4, 8, 24, 48 and 72 h, ii) ~40 L4s were exposed to 50 μM for 96 h and survival was subsequently scored. […] At least three independent experiments were analyzed.
# [6] = system: C. elegans; experiment: Worm cut preparation paralysis; type: in vivo, Caenorhabditis elegans; settings: 10 min; DII 600 μM, levamisole 10 μM; listed as DII
# Method: Cutworm assays were performed as previously described with slight modifications. Briefly, synchronized young adult animals were mounted in a glass microscope slide containing Artificial Perienteric Fluid (APF) (67 mM NaCl, 67 mM NaCH3COOH, 3 mM KCl, 15.7 mM MgCl2, 3 mM CaCl2 and 5 mM Tris, pH 7.6). 10 animals were severed between the middle and tail, approximately two-thirds from the anterior end. Worms were subsequently transferred to a multi-well plate containing APF or drug-APF and paralysis was evaluated after 10 minutes. All experiments were performed at least three times.
# [7] = system: C. elegans; experiment: Larvicidal activity assays
# Method: Three concentrations of drugs were used (100, 300 and 600 μM) and each concentration was repeated in triplicate. After 24, 48 and 72 h alive worms were scored and the results were expressed as the percentage of living worms related to the initial number of L1 animals. This experiment was independently repeated three times.
# [8] = 600 μM, short exposure times, no difference after 48 h
structure (smiles),measurement,setting,value
CC(C)c1cccc(C(C)C)c1-n1ccnc1 [Compound 11],worm death,[1],100%
same,MIC E. coli,[2]; listed as DII (11),256 µg/mL
same,MBC,"[2]; Escherichia coli, ATCC25922",> 256 µg/mL
same,MIC,"[2]; Escherichia coli, ATCC25922",256 µg/mL and 1110 µM
same,MBC,[3]; read-out: MBC S. aureus,> 256 µg/mL
same,MIC,[3]; read-out: MIC S. aureus,256 µg/mL
same,lethality,"[4]; 24 h of exposure, micromolar concentrations",100%
same,LC50,[4]; 8 h of exposure,448.5 ± 1.1 µM
same,LC50,[4]; 24 h of exposure,342.3 ± 1 µM
same,LC50,"[4]; 96 h of exposure, 13°C",23.4 ± 1.06 µM
same,"survival of unc-29 null mutant strain, long exposure","[5]; 50 μM, 96 h",resistant
same,survival of lev-8 mutants vs wild-type,"[5]; 600 μM, 4-72 h",as sensitive to DII as the wild-type
same,survival of unc-63 mutants vs wild-type,"[5]; 600 μM, 4-72 h",as sensitive to DII as the wild-type
same,survival of lev-1 mutants vs wild-type,[5]; [8],slightly resistant
same,survival of unc-38 mutants vs wild-type,[5]; [8],slightly resistant
same,survival of unc-29(e1072)I null mutants vs wild-type,"[5]; CB1072, 600 μM, 4-72 h, listed as DII",extremely resistant
same,DII-mediated death in muscle unc-29 rescue strain OAR61,"[5]; myo-3::unc-29, unc-29(e1072)I, 600 μM",completely restores
same,paralysis in cut specimens,[6],unable to induce paralysis; also recorded: fail to produce significant paralysis
same,larvicidal effect on unc-29 null mutant larvae,[7]; 600 μM,as sensitive to the larvicidal effects of DII as the wild-type strain
same,"larvicidal effect on unc-38, unc-63, lev-8 and lev-1 larvae","[7]; 600 μM, 24, 48 and 72 h",sensitive to DII
same,"larval viability, wild-type L1","[7]; 100, 300 and 600 μM, 24, 48 and 72 h",significant decrease
